Columns and labels:
Assay type in all cases: in vivo
[1] = tested on: Ipomoea hederacea (IPOHE); test: Pre-emergence herbicidal glasshouse test on Ipomoea hederacea; settings: for PRE Application IPOHE herbicidal damage (five point scale): pre-emergence, 1000 g/h, evaluated after 13 days
Procedure, shortened: (§1)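 Scoring scale: 5=80-100%, 4=60-79%, 3=40-59%, 2=20-39%, 1=0-19% damage, assessed on day 13. Compound sprayed at 1000 g/h on soil-grown plants (day 1 pre-, day 8 post-emergence) kept at 24/16 °C, 14 h light.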

[2] = tested on: Amaranthus retoflexus (AMARE); test: Pre-emergence herbicidal glasshouse test on Amaranthus retoflexus; settings: for PRE Application AMARE herbicidal damage (five point scale): pre-emergence, 1000 g/h, evaluated after 13 days
Procedure, shortened: as §1

Setaria faberi (SETFA) [3] = test: Post-emergence herbicidal glasshouse test on Setaria faberi; settings: for POST Application SETFA herbicidal damage (five point scale): post-emergence, 1000 g/h, evaluated after 13 days
Procedure, shortened: as §1

[4] = tested on: Alopecurus myosuroides (ALOMY); test: Pre-emergence herbicidal glasshouse test on Alopecurus myosuroides; settings: for PRE Application ALOMY herbicidal damage (five point scale): pre-emergence, 1000 g/h, evaluated after 13 days
Procedure, shortened: as §1

[5] = tested on: Ipomoea hederacea (IPOHE); test: Post-emergence herbicidal glasshouse test on Ipomoea hederacea; settings: for POST Application IPOHE herbicidal damage (five point scale): post-emergence, 1000 g/h, evaluated after 13 days
Procedure, shortened: as §1

[6] = tested on: Echinochloa crus-galli (ECHCG); test: Post-emergence herbicidal glasshouse test on Echinochloa crus-galli; settings: for POST Application ECHCG herbicidal damage (five point scale): post-emergence, 1000 g/h, evaluated after 13 days
Procedure, shortened: as §1

[7] = tested on: Echinochloa crus-galli (ECHCG); test: Pre-emergence herbicidal glasshouse test on Echinochloa crus-galli; settings: for PRE Application ECHCG herbicidal damage (five point scale): pre-emergence, 1000 g/h, evaluated after 13 days
Procedure, shortened: as §1

[8] = tested on: Amaranthus retoflexus (AMARE); test: Post-emergence herbicidal glasshouse test on Amaranthus retoflexus; settings: for POST Application AMARE herbicidal damage (five point scale): post-emergence, 1000 g/h, evaluated after 13 days
Procedure, shortened: as §1

Solanum nigrum (SOLNI) [9] = test: Pre-emergence herbicidal glasshouse test on Solanum nigrum; settings: for PRE Application SOLNI herbicidal damage (five point scale): pre-emergence, 1000 g/h, evaluated after 13 days
Procedure, shortened: as §1

Solanum nigrum (SOLNI) [10] = test: Post-emergence herbicidal glasshouse test on Solanum nigrum; settings: for POST Application SOLNI herbicidal damage (five point scale): post-emergence, 1000 g/h, evaluated after 13 days
Procedure, shortened: as §1

Setaria faberi (SETFA) [11] = test: Pre-emergence herbicidal glasshouse test on Setaria faberi; settings: for PRE Application SETFA herbicidal damage (five point scale): pre-emergence, 1000 g/h, evaluated after 13 days
Procedure, shortened: as §1

[12] = tested on: Alopecurus myosuroides (ALOMY); test: Post-emergence herbicidal glasshouse test on Alopecurus myosuroides; settings: for POST Application ALOMY herbicidal damage (five point scale): post-emergence, 1000 g/h, evaluated after 13 days
Procedure, shortened: as §1

SMILES | PRE Application IPOHE herbicidal damage (five point scale) [1] | PRE Application AMARE herbicidal damage (five point scale) [2] | POST Application SETFA herbicidal damage (five point scale) (Setaria faberi (SETFA) [3]) | PRE Application ALOMY herbicidal damage (five point scale) [4] | POST Application IPOHE herbicidal damage (five point scale) [5] | POST Application ECHCG herbicidal damage (five point scale) [6] | PRE Application ECHCG herbicidal damage (five point scale) [7] | POST Application AMARE herbicidal damage (five point scale) [8] | PRE Application SOLNI herbicidal damage (five point scale) (Solanum nigrum (SOLNI) [9]) | POST Application SOLNI herbicidal damage (five point scale) (Solanum nigrum (SOLNI) [10]) | PRE Application SETFA herbicidal damage (five point scale) (Setaria faberi (SETFA) [11]) | POST Application ALOMY herbicidal damage (five point scale) [12] | also measured
Cn1ncc(-n2ccc(C(F)(F)F)c(-c3ccc(C(F)(F)F)nc3)c2=O)c(O)c1=O [Compound 7.010] | 5 (5=80-100% damage) | 5 (5=80-100% damage) | 5 (5=80-100% damage) | 5 (5=80-100% damage) | 5 (5=80-100% damage) | 5 (5=80-100% damage) | 5 (5=80-100% damage) | 5 (5=80-100% damage) | 5 (5=80-100% damage) | 5 (5=80-100% damage) | 5 (5=80-100% damage) | 5 (5=80-100% damage) | 
Cn1ncc(-c2ccccc2Cl)c(O)c1=O [Compound 1.114] | 1 (1=0-19% damage) | 1 (1=0-19% damage) | 1 (1=0-19% damage) | 1 (1=0-19% damage) | 1 (1=0-19% damage) | 1 (1=0-19% damage) | 1 (1=0-19% damage) | 1 (1=0-19% damage) | 1 (1=0-19% damage) | 1 (1=0-19% damage) | 1 (1=0-19% damage) | 1 (1=0-19% damage) | 
COc1ccc(-n2cccc(-c3cnn(C)c(=O)c3O)c2=O)cc1 [Compound 9.016] | 1 (1=0-19% damage) | 1 (1=0-19% damage) | 3 (3=40-59% damage) | 2 (2=20-39% damage) | 2 (2=20-39% damage) | 4 (4=60-79% damage) | 1 (1=0-19% damage) | 5 (5=80-100% damage) | 1 (1=0-19% damage) | 5 (5=80-100% damage) | 1 (1=0-19% damage) | 3 (3=40-59% damage) | 
Cn1ncc(-c2ccc(C(F)(F)F)cc2S(=O)(=O)Cc2ccccc2)c(O)c1=O [Compound 2.047] | 1 (1=0-19% damage) | 2 (2=20-39% damage) | 3 (3=40-59% damage) | 1 (1=0-19% damage) | 4 (4=60-79% damage) | 5 (5=80-100% damage) | 5 (5=80-100% damage) | 5 (5=80-100% damage) | 4 (4=60-79% damage) | 5 (5=80-100% damage) | 1 (1=0-19% damage) | 3 (3=40-59% damage) | 
Cn1ncc(-c2ccc(C(F)(F)F)nc2C#N)c(O)c1=O [Compound 4.015] | 1 (1=0-19% damage) | 1 (1=0-19% damage) | 1 (1=0-19% damage) | 1 (1=0-19% damage) | 1 (1=0-19% damage) | 1 (1=0-19% damage) | 1 (1=0-19% damage) | 1 (1=0-19% damage) | 1 (1=0-19% damage) | 1 (1=0-19% damage) | 1 (1=0-19% damage) | 1 (1=0-19% damage) | 
CS(=O)(=O)c1ccccc1-c1cnn(CC(F)F)c(=O)c1O [Compound 2.012] | 5 (5=80-100% damage) | 5 (5=80-100% damage) | 5 (5=80-100% damage) | 5 (5=80-100% damage) | 5 (5=80-100% damage) | 5 (5=80-100% damage) | 5 (5=80-100% damage) | 5 (5=80-100% damage) | 5 (5=80-100% damage) | 5 (5=80-100% damage) | 5 (5=80-100% damage) | 5 (5=80-100% damage) | 
Cn1ncc(-c2ccc(S(C)(=O)=O)cc2Cl)c(O)c1=O [Compound 1.105] | 1 (1=0-19% damage) | 5 (5=80-100% damage) | 1 (1=0-19% damage) | 2 (2=20-39% damage) | 5 (5=80-100% damage) | 5 (5=80-100% damage) | 5 (5=80-100% damage) | 5 (5=80-100% damage) | 4 (4=60-79% damage) | 5 (5=80-100% damage) | 2 (2=20-39% damage) | 2 (2=20-39% damage) | 
CCCn1ncc(-c2c(Cl)ccc(Cl)c2Cl)c(O)c1=O [Compound 1.128] | 1 (1=0-19% damage) | 1 (1=0-19% damage) | 2 (2=20-39% damage) | 1 (1=0-19% damage) | 3 (3=40-59% damage) | 1 (1=0-19% damage) | 1 (1=0-19% damage) | 1 (1=0-19% damage) | 1 (1=0-19% damage) | 4 (4=60-79% damage) | 1 (1=0-19% damage) | 1 (1=0-19% damage) | 
CCCn1c(-c2cccc(Cl)c2)ncc(-c2cnn(C)c(=O)c2O)c1=O [Compound 10.002] |  |  |  |  |  |  |  |  |  |  |  |  | PRE Application IPOHE ([1]; pre-emergence application, Ipomoea hederacea, damage score 1-5): 1 (1=0-19% damage); PRE Application AMARE ([2]; pre-emergence application, Amaranthus retoflexus, damage score 1-5): 4 (4=60-79% damage); POST Application SETFA (Setaria faberi (SETFA) [3]; post-emergence application, Setaria faberi, damage score 1-5): 1 (1=0-19% damage); PRE Application ALOMY ([4]; pre-emergence application, Alopecurus myosuroides, damage score 1-5): 1 (1=0-19% damage); POST Application IPOHE ([5]; post-emergence application, Ipomoea hederacea, damage score 1-5): 4 (4=60-79% damage); POST Application ECHCG ([6]; post-emergence application, Echinochloa crus-galli, damage score 1-5): 2 (2=20-39% damage); PRE Application ECHCG ([7]; pre-emergence application, Echinochloa crus-galli, damage score 1-5): 1 (1=0-19% damage); POST Application AMARE ([8]; post-emergence application, Amaranthus retoflexus, damage score 1-5): 5 (5=80-100% damage); PRE Application SOLNI (Solanum nigrum (SOLNI) [9]; pre-emergence application, Solanum nigrum, damage score 1-5): 1 (1=0-19% damage); POST Application SOLNI (Solanum nigrum (SOLNI) [10]; post-emergence application, Solanum nigrum, damage score 1-5): 5 (5=80-100% damage); PRE Application SETFA (Setaria faberi (SETFA) [11]; pre-emergence application, Setaria faberi, damage score 1-5): 1 (1=0-19% damage); POST Application ALOMY ([12]; post-emergence application, Alopecurus myosuroides, damage score 1-5): 1 (1=0-19% damage)
Cn1ncc(-c2cccn(-c3cccc([N+](=O)[O-])c3)c2=O)c(O)c1=O [Compound 1.147] | 1 (1=0-19% damage) | 2 (2=20-39% damage) | 1 (1=0-19% damage) | 1 (1=0-19% damage) | 1 (1=0-19% damage) | 1 (1=0-19% damage) | 1 (1=0-19% damage) | 1 (1=0-19% damage) | 1 (1=0-19% damage) | 3 (3=40-59% damage) | 2 (2=20-39% damage) | 1 (1=0-19% damage) | 

From US9693556B2, “Herbicidal pyridazinone derivatives” (SYNGENTA LIMITED, priority 2011, dated 2017)
